Results: patent US20210076683A1, “USE OF BACILLUS METHYLOTROPHICUS AS A STIMULANT OF PLANT GROWTH AND BIOLOGICAL CONTROL MEANS, AND ISOLATES OF SAID SPECIES” (UNIVERSIDAD DE GRANADA, priority 2014, published 2021)
*1 amine or outer side, *2 acyl side, *3 side chain or, on linkers, in order; H or OH if unused. Where a SMILES comes first, the peptide text is derived from it. Bridges are numbered along the chain shown (N, C = ends). [ ]: non-standard residue; d: D form. X1 = CC(C)CCCCCCCCC[C@H](CC(=O)[*:1])O[*:2]

What was measured:
[1] = Surfactant activity of the lipopeptides (CMC, surface tension); type: physicochemical; details: at the CMC 0.0025%
Description: After extracting the lipopeptides following the method of Cooper et al. 1981, a yield of 0.12 g/l and 0.10 g/l of culture was obtained for strains XT1 and XT2, respectively. The type strain produced 0.6 g/l. Lipopeptide production has not been described in the case of the Bacillus strain of the commercial preparation Botrybel. More specifically, in addition to surfactin, strain XT1 object of the present invention produces other surfactant lipopeptides such as fengycin and lichenysin.
The cellular dry weight (CDW) of strains XT1, XT2 and of type strain is 2.7 g/l, 2.5 g/l and 2.9 g/l, respectively. In the case of strain XT1, the critical micelle concentration (CMC) is 0.0025% (0.025 mg/ml); a surface tension of 29.7 mN/m was obtained with this value. In the case of the surfactin produced by B. subtilis and marketed by Sigma®, values of 26.7 mN/m at the same CMC were obtained. In other words, strain XT1 produces very active lipopeptides surfactants showing activity similar to the surfactin available on the market.

[2] = system: Anthocoris nemoralis; test: Mortality by ingestion in Anthocoris nemoralis; details: observed 6 days; cultures 5×10^8 CFU/ml, surfactants and Tween 80 1/1000; water control 10

Compound: CC(C)CCCCCCCCC[C@@H]1CC(=O)N[C@@H](CCC(=O)O)C(=O)N[C@@H](CC(C)C)C(=O)N[C@H](CC(C)C)C(=O)N[C@@H](C(C)C)C(=O)N[C@@H](CC(=O)O)C(=O)N[C@H](CC(C)C)C(=O)N[C@@H](CC(C)C)C(=O)O1 [surfactin] (EL[dL]VD[dL]L; linker N-C via X1)
- surface tension [1]: 26.7 mN/m

Compound: Tween 80
- Mortality by ingestion [2]: 5 percentage of individuals
